Experimental findings from patent US10590113B2, “6-hydroxy-4-oxo-1,4-dihydropyrimidine-5-carboxamides as APJ agonists” (priority 2016, dated 2020) are described below.

Like-named read-outs stand apart in the source and are kept apart here.

For the test, the target named is T1, human APJ receptor (Homo sapiens, UniProt P35414).
T1 construct: expressed in transfected cells; host or cells: HEK293
T1 sequence (P35414 1-380): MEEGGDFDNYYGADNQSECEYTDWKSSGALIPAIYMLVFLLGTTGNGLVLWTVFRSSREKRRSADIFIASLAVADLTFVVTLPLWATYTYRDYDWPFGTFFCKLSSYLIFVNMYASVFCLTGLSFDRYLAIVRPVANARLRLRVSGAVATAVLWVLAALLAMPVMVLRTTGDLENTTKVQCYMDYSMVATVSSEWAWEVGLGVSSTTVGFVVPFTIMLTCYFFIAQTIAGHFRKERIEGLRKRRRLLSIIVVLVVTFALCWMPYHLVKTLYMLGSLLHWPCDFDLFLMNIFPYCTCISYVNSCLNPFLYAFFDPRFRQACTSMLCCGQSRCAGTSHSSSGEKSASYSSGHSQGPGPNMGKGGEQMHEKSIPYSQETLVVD
As to the kind of experiment: Intracellular cAMP Accumulation Assay (APJ hcAMP, HTRF). It counts as cell-based. A digest of the protocol:
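Stably transfected HEK293 cells (5,000/well) incubated 30 min at room temperature with serially diluted compound, […] and 2 μM forskolin. cAMP measured by HTRF after 60 min with detection reagents, quantified against a cAMP standard curve; EC50 from variable-slope sigmoidal fit of inhibition of forskolin-stimulated cAMP.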

Where [1] appears, read: human APJ, intracellular cAMP accumulation, read-out: hAPJ cAMP EC50 Potency range.

A word on the EC50: it is the concentration that produces a half-maximal response. The molecule `[2H]C([2H])([2H])Oc1cccc(OC([2H])([2H])[2H])c1-n1c(COCC)nc(=O)c(C(=O)N2CC[C@H](c3ccccc3)C2)c1O` [Example 106, 1-[2,6-bis(^2H3)methoxyphenyl]-2-(ethoxymethyl)-6-hydroxy-5-[(3R)-3-phenylpyrrolidine-1-carbonyl]-1,4-dihydropyrimidin-4-one] gave an EC50 of 0.01 to 10 nM.
Same read-out and setting: the result for `[2H]C([2H])([2H])Oc1cccc(OC([2H])([2H])[2H])c1-n1c(COCC)nc(=O)c(C(=O)N2CC[C@@H](c3ccccc3)C2)c1O` [Example 109, 1-[2,6-bis(^2H3)methoxyphenyl]-2-(ethoxymethyl)-6-hydroxy-5-[(3S)-3-phenylpyrrolidine-1-carbonyl]-1,4-dihydropyrimidin-4-one] reads 0.01 to 10 nM.
As to `COc1cccc(OC)c1-n1c(COC(C)C)nc(=O)c(C(=O)N2CC(c3ccccc3)C2)c1O` [Example 110, 1-(2,6-dimethoxyphenyl)-6-hydroxy-5-(3-phenylazetidine-1-carbonyl)-2-[(propan-2-yloxy)methyl]-1,4-dihydropyrimidin-4-one], the EC50 under setting [1] is 10 to 100 nM.
The same measure, in the same setting: the result for `COc1cccc(OC)c1-n1c(COC(C)C)nc(=O)c(C(=O)N2CC(c3ccc(C)cc3)C2)c1O` [Example 111, 1-(2,6-dimethoxyphenyl)-6-hydroxy-5-[3-(4-methylphenyl)azetidine-1-carbonyl]-2-[(propan-2-yloxy)methyl]-1,4-dihydropyrimidin-4-one] reads 10 to 100 nM.
Consider `CCCCc1nc(=O)c(C(=O)N2CC[C@@H](c3ccccc3)C2)c(O)n1-c1c(OC)ncnc1OC` [Example 112, 2-butyl-3-(4,6-dimethoxypyrimidin-5-yl)-6-hydroxy-5-[(3S)-3-phenylpyrrolidine-1-carbonyl]-3,4-dihydropyrimidin-4-one], for which the EC50 under setting [1] lay in the range of 0.01 to 10 nM.
Still for that read-out and setting: the result for `CCCCc1nc(=O)c(C(=O)N2CC[C@H](c3ccccc3)C2)c(O)n1-c1c(OC)ncnc1OC` [Example 113, 2-butyl-3-(4,6-dimethoxypyrimidin-5-yl)-6-hydroxy-5-[(3R)-3-phenylpyrrolidine-1-carbonyl]-3,4-dihydropyrimidin-4-one] reads 0.01 to 10 nM; that for `CCCCc1nc(=O)c(C(=O)N2CCC(c3ccccc3F)C2)c(O)n1[C@@H](CC)c1ccccc1` (stereo partly drawn) [Example 114, 2-butyl-5-[3-(2-fluorophenyl)pyrrolidine-1-carbonyl]-6-hydroxy-3-[(1S)-1-phenylpropyl]-3,4-dihydropyrimidin-4-one], 0.01 to 10 nM; that for `CCCCc1nc(=O)c(C(=O)N2CC[C@H](c3ccccc3)C2)c(O)n1[C@@H](COC)c1ccccc1` [Example 116, 2-butyl-6-hydroxy-3-[(1R)-2-methoxy-1-phenylethyl]-5-[(3R)-3-phenylpyrrolidine-1-carbonyl]-3,4-dihydropyrimidin-4-one], 0.01 to 10 nM.
On to `CCCCc1nc(=O)c(C(=O)N2CC[C@H](c3ccccc3)C2)c(O)n1[C@H](C)c1ccccc1` [Example 117, 2-butyl-6-hydroxy-3-[(1R)-1-phenylethyl]-5-[(3R)-3-phenylpyrrolidine-1-carbonyl]-3,4-dihydropyrimidin-4-one], for which, under setting [1], the half-maximal effective concentration (EC50) lay in the range of 0.01 to 10 nM.
Still for that read-out and setting: in the case of `CCCCc1nc(=O)c(C(=O)N2CC[C@@H](c3ccccc3)C2)c(O)n1[C@@H](C)c1cccc(OC)c1` [Example 120, 2-butyl-6-hydroxy-3-[(1S)-1-(3-methoxyphenyl)ethyl]-5-[(3S)-3-phenylpyrrolidine-1-carbonyl]-3,4-dihydropyrimidin-4-one] it was 0.01 to 10 nM.
Same read-out and setting: in the case of `CCCCc1nc(=O)c(C(=O)N2CC[C@@H](c3ccccc3)C2)c(O)n1[C@@H](CC)c1ccccc1` [Example 121, 2-butyl-6-hydroxy-3-[(1S)-1-phenylpropyl]-5-[(3S)-3-phenylpyrrolidine-1-carbonyl]-3,4-dihydropyrimidin-4-one] it was 0.01 to 10 nM; in that of `CCCCc1nc(=O)c(C(=O)N2CC[C@H](c3ccccc3)C2)c(O)n1[C@H](C)c1ccccc1OC` [Example 122, 2-butyl-6-hydroxy-3-[(1R)-1-(2-methoxyphenyl)ethyl]-5-[(3R)-3-phenylpyrrolidine-1-carbonyl]-3,4-dihydropyrimidin-4-one], 0.01 to 10 nM; in that of `CCCCc1nc(=O)c(C(=O)N2CC[C@H](c3ccccc3)C2)c(O)n1[C@H](CC)c1ccccc1` [Example 124, 2-butyl-6-hydroxy-3-[(1R)-1-phenylpropyl]-5-[(3R)-3-phenylpyrrolidine-1-carbonyl]-3,4-dihydropyrimidin-4-one], 0.01 to 10 nM.
On the same count and under the same terms, in the case of `CCCCc1nc(=O)c(C(=O)N2CC[C@@H](c3ccccc3)C2)c(O)n1[C@@H](C)c1ccccc1` [Example 125, 2-butyl-6-hydroxy-3-[(1S)-1-phenylethyl]-5-[(3S)-3-phenylpyrrolidine-1-carbonyl]-3,4-dihydropyrimidin-4-one] it was 0.01 to 10 nM; in that of `CCCCc1nc(=O)c(C(=O)N2CC[C@H](c3ccccc3)C2)c(O)n1[C@@H](C)C1CC1` [Example 126, 2-butyl-3-[(1S)-1-cyclopropylethyl]-6-hydroxy-5-[(3R)-3-phenylpyrrolidine-1-carbonyl]-3,4-dihydropyrimidin-4-one], 0.01 to 10 nM; in that of `CCCCc1nc(=O)c(C(=O)N2CC[C@@H](c3ccccc3)C2)c(O)n1[C@@H](COC)c1ccccc1` [Example 127, 2-butyl-6-hydroxy-3-[(1R)-2-methoxy-1-phenylethyl]-5-[(3S)-3-phenylpyrrolidine-1-carbonyl]-3,4-dihydropyrimidin-4-one], 10 to 100 nM.
As for `CCCCc1nc(=O)c(C(=O)N2CC[C@@H](c3ccccc3)C2)c(O)n1[C@H](CC)c1ccccc1` [Example 128, 2-butyl-6-hydroxy-3-[(1R)-1-phenylpropyl]-5-[(3S)-3-phenylpyrrolidine-1-carbonyl]-3,4-dihydropyrimidin-4-one], the half-maximal effective concentration (EC50) under setting [1] lay within 10 to 100 nM.
The same measure, in the same setting: the result for `CCCCc1nc(=O)c(C(=O)N2CC[C@@H](c3ccccc3)C2)c(O)n1C(c1ccccc1)C(C)C` (stereo partly drawn) [Example 129, 2-butyl-6-hydroxy-3-(2-methyl-1-phenylpropyl)-5-[(3S)-3-phenylpyrrolidine-1-carbonyl]-3,4-dihydropyrimidin-4-one] reads 10 to 100 nM; that for `CCCCc1nc(=O)c(C(=O)N2CC[C@H](c3ccccc3)C2)c(O)n1C(c1ccccc1)C(C)C` (stereo partly drawn) [Example 130, 2-butyl-6-hydroxy-3-(2-methyl-1-phenylpropyl)-5-[(3R)-3-phenylpyrrolidine-1-carbonyl]-3,4-dihydropyrimidin-4-one], 10 to 100 nM; that for `CCCCc1nc(=O)c(C(=O)N2CC[C@@H](c3ccccc3)C2)c(O)n1[C@@H](C)C1CC1` [Example 131, 2-butyl-3-[(1S)-1-cyc1opropylethyl]-6-hydroxy-5-[(3S)-3-phenylpyrrolidine-1-carbonyl]-3,4-dihydropyrimidin-4-one], 10 to 100 nM.
`CCCCc1nc(=O)c(C(=O)N2CC[C@@H](c3ccccc3)C2)c(O)n1[C@H](C)c1ccccc1` [Example 132, 2-butyl-6-hydroxy-3-[(1R)-1-phenylethyl]-5-[(3S)-3-phenylpyrrolidine-1-carbonyl]-3,4-dihydropyrimidin-4-one]: the EC50 under setting [1] was 10 to 100 nM.
In the case of `CCCCc1nc(=O)c(C(=O)N2CC[C@@H](c3ccccc3)C2)c(O)n1C(C)c1ccccc1Cl` (stereo partly drawn) [Example 133, 2-butyl-3-[1-(2-chlorophenyl)ethyl]-6-hydroxy-5-[(3S)-3-phenylpyrrolidine-1-carbonyl]-3,4-dihydropyrimidin-4-one], the EC50 under setting [1] was in the range of 10 to 100 nM.
On the same count and under the same terms, in the case of `CCCCc1nc(=O)c(C(=O)N2CC[C@H](c3ccccc3)C2)c(O)n1C(C)c1ccccc1Cl` (stereo partly drawn) [Example 134, 2-butyl-3-[1-(2-chlorophenyl)ethyl]-6-hydroxy-5-[(3R)-3-phenylpyrrolidine-1-carbonyl]-3,4-dihydropyrimidin-4-one] it was 10 to 100 nM; in that of `CCCCc1nc(=O)c(C(=O)N2CC[C@@H](c3ccccc3)C2)c(O)n1[C@H](C)c1ccccc1OC` [Example 135, 2-butyl-6-hydroxy-3-[(1R)-1-(2-methoxyphenyl)ethyl]-5-[(3S)-3-phenylpyrrolidine-1-carbonyl]-3,4-dihydropyrimidin-4-one], 10 to 100 nM; in that of `CCCCc1nc(=O)c(C(=O)N2CC[C@@H](c3ccccc3)C2)c(O)n1C(C)c1ccccc1` (stereo partly drawn) [Example 136, 2-butyl-6-hydroxy-3-(1-phenylethyl)-5-[(3S)-3-phenylpyrrolidine-1-carbonyl]-3,4-dihydropyrimidin-4-one], 10 to 100 nM.
Consider `CCCCc1nc(=O)c(C(=O)N2CC[C@H](c3ccccc3)C2)c(O)n1[C@@H](CCC)c1ccccc1` [Example 137, 2-butyl-6-hydroxy-3-[(1S)-1-phenylbutyl]-5-[(3R)-3-phenylpyrrolidine-1-carbonyl]-3,4-dihydropyrimidin-4-one], for which, under setting [1], the 50% effective concentration (EC50) was 10 to 100 nM.
On the same count and under the same terms, in the case of `CCCCc1nc(=O)c(C(=O)N2CC[C@H](c3ccccc3)C2)c(O)n1[C@@H](C)c1cccc(C#N)c1` [Example 138, 3-[(1S)-1-{2-butyl-4-hydroxy-6-oxo-5-[(3R)-3-phenylpyrrolidine-1-carbonyl]-1,6-dihydropyrimidin-1-yl}ethyl]benzonitrile] it was 10 to 100 nM; in that of `CCCCc1nc(=O)c(C(=O)N2CC[C@H](c3ccccc3)C2)c(O)n1[C@@H](C)c1cccc(OC)c1` [Example 139, 2-butyl-6-hydroxy-3-[(1S)-1-(3-methoxyphenyl)ethyl]-5-[(3R)-3-phenylpyrrolidine-1-carbonyl]-3,4-dihydropyrimidin-4-one], 10 to 100 nM.
